Patent US20080213275A1, “USE OF MTKI 1 FOR TREATING OR PREVENTING BONE CANCER” (priority 2006, published 2008)

Tests used:
[1] = system: NCTC2472 fibrosarcoma or MDA-MB231 breast cancer cells injected into bone; experiment: Evaluation of bone destruction by μCT of ipsilateral left hind limbs; assay type: in vivo, mice; conditions: tumor inoculated animals, dosed at MTD; compared with vehicle and sham
Description: (§1) Male C3H/HeNCrl mice for the NCTC2472 mouse fibrosarcoma cells (20-25 g, Charles River, Sulzfeld, Germany) or female NMRI Nude mice for the MDA MB 231 human breast cancer cells (Janvier, France) were used. Induction of bone cancer was carried out as previously described (Schwei et al., 1999^1). Induction of general anaesthesia was performed under 4% isoflurane in a mixture of 30% O2 and 70% air (1000 ml/ min). Anaesthesia was then maintained at 2.5% isoflurane for the duration of the surgical procedure. The left hind paw was shaved and disinfected with povidone-iodine followed by 70% ethanol. A superficial 1 cm incision was made over the knee overlaying the patella. The patella ligament was cut, exposing the condyles of the distal femur. A 23-gauge needle was inserted at the level of the intercondylar notch and the intramedullary canal of the femur to create a cavity for injection of the cells. Tumour cells (2.5×10^6 cells/20 μl) were then injected into the bone cavity using a 0.3 ml syringe. To prevent leakage of cells outside the bone, the injection site was sealed with dental acrylic (Paladur, Heraeus Kulzer, GmbH, Wehrheim, Germany) and the wound closed with skin stitches. For the sham-operated group, an identical procedure was followed except that medium without cells was injected.

[2] = system: MDA B231 bone homing clone cells; experiment: Bone cancer metastasis model, histological sections after 42 days; assay type: in vivo, mice; conditions: po, qd
Description: as §1
In the bone cancer metastasis model MDA B231 bone homing clone cells were inoculated into the tibia as described. After 42 days, animals were sacrificed and the amputated paws placed in fixative. The legs were de-calcified and sections cut to determine levels of bone destruction.

[3] = oral gavage, once daily
[4] = Tissue distribution profile; assay type: in vivo
[5] = system: NCTC2472 fibrosarcoma or MDA-MB231 breast cancer cells injected into bone; experiment: Spontaneous paw lifting behaviour (pain) in bone cancer model; assay type: in vivo, mice; conditions: day 14 post tumor cell inoculation; dosed at MTD by oral gavage once daily; 4 minutes observation; vehicle 80%
Description: as §1, with “injected. […]” for “injected.”

| SMILES | osteolytic bone destruction (μCt reconstructions, FIG. 2) [1] | detectable tumor in histological sections (FIG. 3) ([2]; 100 mg per kg) | signs of tumor cells and bone destruction ([2]; 100 mg per kg) | amount of tumor growth and amount of bone destruction ([2]; dose dependence) | maximum tolerated dose (MTD) [3] | tissue distribution to bone marrow ([4]; in vivo) | blood brain barrier penetration ([4]; intact blood brain barrier) | percentage of the time the left hind paw was raised (spontaneous paw lifting) [5] |
| --- | --- | --- | --- | --- | --- | --- | --- | --- |
| COc1cc2ncnc3c2cc1OCCCCCN(C)Cc1ccc(Br)cc1N3 [Compound 1, 4,6-ethanediylidenepyrimido[4,5-b][6,1,12]benzoxadiazacyclo-pentadecine, 17-bromo-8,9,10,11,12,13,14,19-octahydro-20-methoxy-13-methyl] | significantly less bone destruction | detectable tumor is hardly present | no signs of tumor cell not any signs bone destruction | dose dependently reduced | 200 mg per kg | preferential tissue distribution to the bone marrow compartment | ability to cross the intact blood brain barrier | ~8% |
| COc1cc2ncnc(Nc3ccc(F)c(Cl)c3)c2cc1OCCCN1CCOCC1 [Iressa, reference compound] | Considerable bone loss |  |  |  | 50 mg per kg |  |  | more than 35% |
